Here are results for six molecules from publication PMC8954547, “Nonpeptidic Z360-Analogs Tagged with Trivalent Radiometals as Anti-CCK2R Cancer Theranostic Agents: A Preclinical Study” (Pharmaceutics, 2022).

One assay has as its system HEK293-YC3.60 cells. Put plainly: FRET-based Ca2+ mobilization assay in HEK293-YC3.60 cells (negative controls devoid of CCK2R). Type of assay: cell-based, human. The note with it: HEK293-YC3.60 clone #5. On the procedure:
For most biological experiments, HEK293 cells transfected to stably express the human CCK2i4svR splice variant were used, kindly provided by Dr. P. Laverman (Radboud University Nijmegen Medical Center, Nijmegen, The Netherlands) and Prof. M. R. Hellmich (University of Texas Medical Branch, Galveston, TX, USA), while non-transfected wtHEK293 cells served as negative controls. Cells were cultured in DMEM with GlutaMAX-I supplemented with 10% (v/v) fetal bovine serum (FBS), 100 U/mL penicillin and 100 μg/mL streptomycin and kept in a controlled humidified air containing 5% CO2 at 37 °C; the medium for transfected cells was additionally supplemented with 400 μg/mL G418. […]
Purity as determined by HPLC exceeded 97% in all cases. system 1 was applied: RP-HPLC with twin UV detection at 220 nm and gamma detection; a Symmetry Shield RP18 column (5 μm, 3.9 mm × 150 mm) was eluted at a flow rate of 1 mL/min with linear gradient: 100%A/0% B to 70%A/30% B in 5 min and then 70%A/30% B to 55%A/45% B in 60 min, with A = 0.1% TFA in H2O (v/v) and B = MeCN. […]
Methods for FRET-based detection of Ca2+ in HEK293 cells were descri bed previ ousl y. […] The human CCK2R (NM_176875) in pCMV6-Entry vector contained the receptor’s complete open reading frame with a Myc-DDK epitope tag (OriGene Technologies; Cat. No. R200676). […]

The target of assay [1] is T1, human CCK2R (Homo sapiens, UniProt P32239).
T1 construct: host or cells: HEK293 clone #21 (HEK293-hCCK2R/YC3.60), stably co-expressing the Ca2+ biosensor YC3.60
T1 sequence (P32239 1-447): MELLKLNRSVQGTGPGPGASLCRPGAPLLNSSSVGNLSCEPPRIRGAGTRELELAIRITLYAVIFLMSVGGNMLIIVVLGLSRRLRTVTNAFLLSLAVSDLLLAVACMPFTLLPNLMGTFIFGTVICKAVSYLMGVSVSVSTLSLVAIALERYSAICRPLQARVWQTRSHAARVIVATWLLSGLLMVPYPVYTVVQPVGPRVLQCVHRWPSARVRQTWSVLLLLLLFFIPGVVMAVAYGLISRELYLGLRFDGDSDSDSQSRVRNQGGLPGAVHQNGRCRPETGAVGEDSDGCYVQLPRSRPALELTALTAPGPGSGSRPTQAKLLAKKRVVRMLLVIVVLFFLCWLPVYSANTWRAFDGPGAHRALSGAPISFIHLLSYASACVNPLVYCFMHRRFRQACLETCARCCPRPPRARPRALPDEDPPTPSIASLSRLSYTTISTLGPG
Put plainly: FRET-based Ca2+ mobilization assay in HEK293-hCCK2R/YC3.60 cells. Type of assay: cell-based. The method, then:
For most biological experiments, HEK293 cells transfected to stably express the human CCK2i4svR splice variant were used, kindly provided by Dr. P. Laverman (Radboud University Nijmegen Medical Center, Nijmegen, The Netherlands) and Prof. M. R. Hellmich (University of Texas Medical Branch, Galveston, TX, USA), while non-transfected wtHEK293 cells served as negative controls. Cells were cultured in DMEM with GlutaMAX-I supplemented with 10% (v/v) fetal bovine serum (FBS), 100 U/mL penicillin and 100 μg/mL streptomycin and kept in a controlled humidified air containing 5% CO2 at 37 °C; the medium for transfected cells was additionally supplemented with 400 μg/mL G418. All culture media were purchased from Gibco BRL, Life Technologies (Grand Island, NY, USA) and supplements were supplied by Biochrom KG Seromed (Berlin, Germany). For Ca^2+-mobilization assays, HEK293 cell clones (generated by O.G. Chepurny in the G.G. Holz laboratory) were transfected to stably co-express either both the human CCK2R and the Ca^2+ biosensor YC3.60 (clone #21) or only YC3.60 (clone #5, negative controls devoid of CCK2R expression) (Supplementary File). Ca^2+ mobilization assays were conducted by FRET-based detection of Ca^2+ in HEK293-hCCK2R/YC3.60 and HEK293-YC3.60 cells (negative controls) for GAS1/2/3 as well as for DG2, [Leu^15]gastrin-17 and Z360 (controls), as outlined in the Supplementary File. […]
Table S2. Analytical HPLC Data for (Radio)Metal-Tagged GAS1/2/3 (tR (min) gamma/UV trace). compound - [67Ga]Ga/[natGa]Ga [111In]In/[natIn]In [177Lu]Lu/[natLu]Lu […]
Purity as determined by HPLC exceeded 97% in all cases. system 1 was applied: RP-HPLC with twin UV detection at 220 nm and gamma detection; a Symmetry Shield RP18 column (5 μm, 3.9 mm × 150 mm) was eluted at a flow rate of 1 mL/min with linear gradient: 100%A/0% B to 70%A/30% B in 5 min and then 70%A/30% B to 55%A/45% B in 60 min, with A = 0.1% TFA in H2O (v/v) and B = MeCN.
Preparation of [natGa]Ga-GAS1/2/3, [natIn]In-GAS1/2/3 and [natLu]Lu-GAS1/3 To an Eppendorf Protein LoBind® centrifuge tube containing GAS1/2/3 precursor stock solution (60 μL, 120 μg, ≈60 nmol), a stock solution (60 μL, 2 mM, 120 nmol) of the respective nitrate salt dissolved in 1 M sodium acetate buffer of pH 4.0 (for gallium), 4.6 (for indium) and 5.0 (for lutetium) was added. The mixture was heated at 75 °C for 1 h. […]
action mixture using HPLC system 1, allowing for base line separation of metal-tagged from metal-free GAS1/2/3. Retention times (UV trace, tR in min) of all GAS species were included in Table S2. The metal-tagged GAS solutions were used as such in in vitro com-petition binding assays assuming a 0.5 mM CCK2R-ligand concentration.
Methods for FRET-based detection of Ca2+ in HEK293 cells were descri bed previ ousl y. The clone #21 HEK293 cell line (HEK293-hCCK2R/YC3.60) stably co-expressing the human CCK2R and the Ca2+ biosensor YC3.60 was generated a ccording to published methods. The clone #5 HEK293 cell line (HEK293-YC3.60) that expressed only YC3.60 served as a negative control and was generated in a similar matter. […] The human CCK2R (NM_176875) in pCMV6-Entry vector contained the receptor’s complete open reading frame with a Myc-DDK epitope tag (OriGene Technologies; Cat. No. R200676). Test compounds included human [Leu15]-gastrin- […]
For orientation: A change in cytosolic calcium serves as a functional read-out for many receptors and channels.

Assay [2] deals with T2, human CCK2i4svR splice variant (Homo sapiens, UniProt P32239).
T2 construct: expressed in transfected cells; membrane homogenates
T2 sequence (P32239 1-516 isoform P32239-2): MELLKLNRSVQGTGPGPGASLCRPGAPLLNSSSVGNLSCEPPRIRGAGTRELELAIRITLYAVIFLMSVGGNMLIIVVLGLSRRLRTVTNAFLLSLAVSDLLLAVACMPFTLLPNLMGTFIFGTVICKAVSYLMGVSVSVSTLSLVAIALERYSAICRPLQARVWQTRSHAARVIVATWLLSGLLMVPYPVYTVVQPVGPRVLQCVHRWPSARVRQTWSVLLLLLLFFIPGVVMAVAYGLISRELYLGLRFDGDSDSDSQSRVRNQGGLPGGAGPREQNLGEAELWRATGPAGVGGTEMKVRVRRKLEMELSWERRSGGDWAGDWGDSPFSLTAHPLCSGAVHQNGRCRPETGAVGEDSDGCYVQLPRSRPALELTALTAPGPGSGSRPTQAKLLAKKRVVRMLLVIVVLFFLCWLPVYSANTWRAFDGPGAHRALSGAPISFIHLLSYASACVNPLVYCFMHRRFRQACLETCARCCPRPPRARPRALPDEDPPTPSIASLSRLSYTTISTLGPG
Put plainly: Competition binding against [125I][I-Tyr12,Leu15]gastrin-17 in HEK293-CCK2i4svR cell membranes. The note with it: vs [125I][I-Tyr12,Leu15]gastrin-17, HEK293-CCK2i4svR cell membranes, 1 h 22 °C; mean ± SD. The method, then:
Competition binding assays for the metal-free GAS1/2/3 and the corresponding metal-tagged [^natGa]Ga/[^natIn]In/[^natLu]Lu-GAS1/3 and [^natGa]Ga/[^natIn]In-GAS2 analogs were conducted against the [^125I][I-Tyr^12,Leu^15]gastrin-17 radioligand in membrane homogenates harvested from HEK293-CCK2i4svR cells, as previously described. Briefly, each of the above analogs, or unmodified Z360 serving as control, was incubated in triplicates of increasing concentrations (10^−13–10^−6 M) with [^125I][I-Tyr^12,Leu^15]gastrin-17 (50 pM, ≈40,000 cpm) and membrane homogenate in binding buffer (300 µL, pH 7.4, 50 mM HEPES, 1% BSA, 5.5 mM MgCl2, 35 µM bacitracin) for 1 h at 22 °C. Incubation was interrupted by rapid filtration through glass fiber filters (Whatman GF/B, presoaked in binding buffer for at least 1 h) on a Brandel Cell Harvester (Adi Hassel Ingenieur Büro, Munich, Germany) and subsequent rinsing with ice-cold washing buffer (10 mM HEPES pH 7.4, 150 mM NaCl). The radioactivity content of individual filters was measured in a gamma counter (automated multi-sample well-type instrument with a NaI(Tl) 3′ crystal, Canberra Packard Cobra^TM Quantum U5003/1, Auto-Gamma® counting system). The 50% inhibitory concentration (IC50) was determined by nonlinear regression analysis according to a one-site model using PRISM 6 (Graph Pad Software, San Diego, CA, USA). Values are expressed as mean ± standard deviation (SD) of three independent experiments performed in triplicate.

In assay [3] the target is T1, human CCK2R. Set-up: method as in PMID 32568549. The note with it: cited from earlier work.

Molecules are shown by their SMILES. *1 amine or outer side, *2 acyl side, *3 side chain or, on linkers, in order; H or OH if unused. Where a SMILES comes first, the peptide text is derived from it. [ ]: non-standard residue; d: D form. The star is where a group is joined. X1 = CC(C)(C)C(=O)CN1C(=O)[C@H](N*)CN(C2CCCCC2)c2ccccc21; pGlu = O=C1CC[C@@H](C(=O)O)N1; PEG3 = NCCOCCOCCOCCC(=O)O; 3Abz = Nc1cccc(C(=O)O)c1; X2 = NCCNCC(CNCCN)C(=O)*; CO = O=C([*:1])[*:2]

For `CC(C)C[C@H](NC(=O)[C@H](Cc1c[nH]c2ccccc12)NC(=O)CNC(=O)[C@H](Cc1ccc(O)cc1)NC(=O)[C@H](C)NC(=O)[C@H](CCC(=O)O)NC(=O)[C@H](CCC(=O)O)NC(=O)[C@H](CCC(=O)O)NC(=O)[C@H](CCC(=O)O)NC(=O)[C@H](CCC(=O)O)NC(=O)[C@H](CC(C)C)NC(=O)[C@H](Cc1c[nH]c2ccccc12)NC(=O)[C@@H]1CCCN1C(=O)CNC(=O)[C@@H]1CCC(=O)N1)C(=O)N[C@@H](CC(=O)O)C(=O)N[C@@H](Cc1ccccc1)C(N)=O` [[Leu^15]gastrin-17, pGlu-Gly-Pro-Trp-Leu-(Glu)5-Ala-Tyr-Gly-Trp-Leu-Asp-Phe-NH2, reference compound] ([pGlu]GPWLEEEEEAYGWLDF-NH2), in the assay with HEK293-YC3.60 cells, the “Ca2+ response in cells devoid of CCK2R expression” value is “failed to respond”. Further, the “Concentration at which the CCK2R is activated (Ca2+ mobilization)” value on human CCK2R [1] is given as 100 pM. With `CC(C)(C)C(=O)CN1C(=O)C(NC(=O)Nc2cccc(C(=O)O)c2)CN(C2CCCCC2)c2ccccc21` (centres unmarked) [Z360], the IC50 (commonly the concentration needed to halve the response being measured) in assay [2] was determined as 1.2 ± 0.5 nM. The “Concentration threshold for agonistic properties (Ca2+ mobilization)” value (“Concentration threshold” below) at human CCK2R [1] is given as above 100 nM. In assay [2], `CC(C)(C)C(=O)CN1C(=O)[C@H](NC(=O)Nc2cccc(C(=O)NCCOCCOCCOCCNC(=O)[C@H](CCC(=O)O)NC(=O)CCC(C(=O)O)N3CCN(CC(=O)O)CCN(CC(=O)O)CCN(CC(=O)O)CC3)c2)CN(C2CCCCC2)c2ccccc21` (some centres unmarked) [GAS3, DOTAGA-DGlu-HN(PEG3)NH-Z360] registered a half-maximal inhibitory concentration (IC50) of 3.1 ± 1.5 nM. Besides, the “Concentration threshold” value at human CCK2R [1] was above 100 nM. Molecule `CC(C)(C)C(=O)CN1C(=O)[C@H](NC(=O)Nc2cccc(C(=O)NCCOCCOCCOCCNC(=O)[C@H](CCC(=O)O)NC(=O)CN3CCN(CC(=O)O)CCN(CC(=O)O)CCN(CC(=O)O)CC3)c2)CN(C2CCCCC2)c2ccccc21` [GAS1, DOTA-DGlu-HN(PEG3)NH-Z360] yielded a concentration for half-maximal inhibition (IC50) in assay [2] of 5.9 ± 1.8 nM. For the same molecule, the “Concentration threshold” value at human CCK2R [1] is above 100 nM. As to `CC(C)(C)C(=O)CN1C(=O)[C@H](NC(=O)Nc2cccc(C(=O)NCCOCCOCCOCCC(=O)N[C@H](CCC(=O)O)C(=O)N[C@H](CCC(=O)O)C(=O)N[C@H](CCC(=O)O)C(=O)N[C@H](CCC(=O)O)C(=O)N[C@@H](CCCCNC(=O)C(CNCCN)CNCCN)C(=O)O)c2)CN(C2CCCCC2)c2ccccc21` [DGA1, Z360-PEG3-DGlu-DGlu-DGlu-DGu-Lys(N4)−OH] ({X1-CO-3Abz-PEG3}-[dE][dE][dE][dE]K(X2)-OH), the “Functional profile at the CCK2R” value at human CCK2R [3] is “pure antagonist profile”. In assay [2], `CC(C)(C)C(=O)CN1C(=O)[C@H](NC(=O)Nc2cccc(C(=O)NCCOCCOCCOCCNC(=O)[C@H](CCC(=O)O)NC(=O)CCC(C(=O)O)N3CCN(CC(=O)O)CCN(CC(=O)O)CC3)c2)CN(C2CCCCC2)c2ccccc21` (some centres unmarked) [GAS2, NODAGA-DGlu-HN(PEG3)NH-Z360] yielded a half-inhibitory concentration (IC50) of 4.1 ± 1.1 nM. For the same molecule, on human CCK2R [1], the “Concentration threshold” value is above 100 nM.
